Laboratory results reported in patent US20140100107A1, “TERNARY FUNGICIDAL COMPOSITIONS COMPRISING A DITHIINO-TETRACARBOXAMIDE FUNGICIDE” (BAYER INTELLECTUAL PROPERTY GMBH, priority 2011, published 2014).

System: Alternaria solani
Assay: Alternaria test (tomatoes)/preventive
Type: in vivo
Conditions: preventive spray, evaluated 3 days after inoculation
Protocol: Alternaria Test (Tomatoes)/Preventive [table] To produce a suitable preparation of active compound, 1 part by weight of active compound is mixed with the stated amounts of solvent and emulsifier, and the concentrate is diluted with water to the desired concentration. To test for preventive activity, young plants are sprayed with the preparation of active compound at the stated rate of application. After the spray coating has dried on, the plants are inoculated with an aqueous spore suspension of Alternaria solani. The plants are then placed in an incubation cabinet at approximately 20° C. and a relative atmospheric humidity of 100%. The test is evaluated 3 days after the inoculation. 0% means an efficacy which corresponds to that of the untreated control while an efficacy of 100% means that no disease is observed.

SMILES: Cn1c(=O)c2sc3c(=O)n(C)c(=O)c3sc2c1=O [(1.1), 2,6-dimethyl-1H,5H-[1,4]dithiino[2,3-c:5,6-c′]dipyrrole-1,3,5,7(2H,6H)-tetrone]
- Efficacy in % found (activity found) (application rate 10 ppm a.i.): 0%

SMILES: O=C(NCCc1ncc(C(F)(F)F)cc1Cl)c1ccccc1C(F)(F)F [(2.6), fluopyram]
- Efficacy in % found (activity found) (application rate 1 ppm a.i.): 7%

SMILES: CC(C)(C)C(O)(CCc1ccc(Cl)cc1)Cn1cncn1 (stereo not drawn) [(3.47), tebuconazole]
- Efficacy in % found (activity found) (application rate 1 ppm a.i.): 21%
